Results on 1 substance are retold here after patent US20120276015A1, “Optical in vivo Imaging Contrast Agents and Methods of Use” (priority 2005, published 2012).

This test deals with sites of inflammation. Description: In vivo imaging of collagen-induced arthritis (CIA) mice, qualitative analysis of targeting. Set-up: species or system Balb/c mice. The note with it: inflamed paw. Here is the method: Inflammation was modeled by inducing polyarticular collagen-induced arthritis (CIA) in 4-6 week old female Balb/c mice (Charles River). Antibody mediated CIA was induced by intravenous (IV; tail vein) injection of 2 mg Arthrogen-CIA Monoclonal Antibody Blend (Chemicon). Three days after antibody treatment, each mouse received 50 μg Lipopolysaccharide (LPS; Chemicon) intraperitoneally (IP). Seven days after the initial injection, the mice had recovered from the LPS toxicity and symptoms of arthritis were observed. Mice were monitored daily and scored for paw and joint swelling based on the following scale: • 0: Normal • 1: Mild but definite swelling of ankle or wrist or swelling limited to individual digits • 2: Moderate redness and swelling of ankle and wrist • 3: Severe redness and swelling of the entire paw including digits (none of the study mice reached this stage)
Mice were injected with the present contrast agent when they reached level 2, between five and ten days after the LPS injection.
Contrast agents were introduced systemically by IV injection. A 29-guage needle was used to inject 100 μl of 1% solids in water (without buffer salts or saline) containing 2% Pluronic F-127 via the lateral tail vein. The tail was stroked lengthwise three times with an alcohol saturated pad to dilate the blood vessels prior to injection. […]

For the substance “BSA conjugate: BSA conjugate used as comparison contrast agent; labeled the whole paw”, the “image resolution of labeling” value was “labeled the whole paw”.
